Columns and labels:
Type in all cases: cell-based, Plasmodium falciparum
Dd2 [1] = experiment: Stage specific activity assay; settings: 5 × EC50
Description: To corroborate the findings identified through the in vitro evolution of resistance, the activity of NPDG-F was assessed in a stage-dependent manner in vitro. Because actin proteins are needed for chromosome separation, we anticipated that parasites treated with NPDG-F would arrest late in the cell cycle. The parasite strain Dd2 was first synchronized and treated in ring (~6 h post invasion, HPI), trophozoite (~18 HPI), early schizont (~30 HPI), or late schizont (~42 HPI). Cultures were then observed in each condition every 12 h until reinvasion occurred via Giemsa stain and flow cytometry. When added in early ring, NPDG-F treated cultures proceeded normally through the intraerythrocytic life cycle until late schizogony (Fig. 4A). […]
EC50s. […] Dose-response curves were then generated for the available conditions where EC50s could be determined. The fractional inhibitor concentration of both compounds was then determined as described (Fivelman et al., 2004) for the available points and graphed on a scale of 0-1 also using Graphpad Prism version 10.
Cytotoxicity was assessed using an MTS (3-(4,5-Dimethylthiazol-2-yl)-5-(3-carboxymethoxyphenyl)-2-(4-sulfophenyl)-2H-tetrazolium) absorbance assay with human HepG2 hepatoma cells. […] Following a 48-h incubation with compounds, MTS solution was added to wells and absorbance was read after 2-4 h on a Synergy Neo2 multimode reader (BioTek Winsooki, VT). […]

Dd2-Pol δ parent line = experiment: Resistant parasite phenotyping and cross resistance, SYBR green I EC50 assay, parent line; settings: Plasmodium falciparum; strain Dd2-Pol δ -parent; read-out: EC50 (mean ± SEM)
Description: Cloning by limiting dilution was then performed to isolate individual lines from the bulk population. Due to the multiple mutations identified in the first biological replicate, we isolated four clones from this bulk culture as compared to two clones each from the second and third replicates. These clones were phenotyped via a SYBR green I-based dose–response assay (Table 2 and Fig. 2B). […] The DNA of these clones was then extracted and subjected to whole-genome sequencing.
Resistant parasite phenotyping and cross resistance measurement
The EC50 assay was performed at 1% parasitemia, 1% hematocrit with SYBR green I in 96-well plates. The highest final concentration of the methyldeoxaphomin NPDG-F was set at 100 μM. Briefly, the compound was subjected to a 3-fold serial dilution with ten dilution points. Three technical replicates were set up at each dilution point. The Dd2-Pol δ parent line and the resistant parasites at 2% hematocrit and 1% parasitemia were added to the drug media at 1:1 ratio. The plate was incubated at 37°C for 72 hours in a chamber filled with a hypoxic gas mixture (3% oxygen, 5% carbon dioxide, and 92% nitrogen). After incubation, the cells were lysis with lysis buffer (20 mM Tris-HCL, 0.08% saponin, 5 mM EDTA, and 0.8% Triton X-100) containing SYBR green I (10,000X, Thermo Fisher, cat # S7563) overnight. Fluorescence was measured at 485nm excitation and 530nm emission using a PHERAstar FSX plate reader (BMG Labtech, Germany). Dose response curves were graphed with Prism 9 Version 9.5.1.
3D structural analysis of the mutations and docking studies
The crystal structure of PfActin1 with accession number 6TU4 (resolution 2.60 Ang) (Vahokoski et al., 2022) was obtained from the Protein Data Bank (PDB). This structure of PfActin1 contains ligands Jasplakinolide and ADP with a coordinating magnesium ion.
Only chain A was used for the docking experiment. […] Schrodinger maestro software (Schrödinger, LLC) was used to build NPDG-F with the proper stereochemistry using the x-ray structure determined for analog NPDG-A (vide supra). […]

Dd2 [2] = experiment: Rate of killing assay by flow cytometry; settings: 10 × EC50 for 12, 24, or 48 h
Description: After a 24 h lag phase, only 10^0.64 parasites are killed within the first replication cycle (48 h). […] We also examined the in vitro killing rate in Dd2 through flow cytometric analysis.
Following the previously described protocol (Collins et al., 2021), compound or vehicle control was added to Dd2 culture in the majority ring stage and incubated for either 12, 24, or 48 h prior to compound removal. Samples were then taken at the time of compound removal, and every 24 h for 6 days for flow analysis with SYBR Green I and Mitotracker Deep red FM. Analysis was performed in Flowjo version 10 with gating using DHA, vehicle, no mitotracker, no staining, and uninfected RBC controls. Cells designated as SYBR positive and mitotracker positive were gated as “viable parasites” and graphed using Graphpad Prism version 10. […]

## C=C1C(C)C2C(Cc3ccccc3)NC(=O)C23C(=O)C=CC(O)C(O)C(C)CC(C)CC=CC3C1O (stereo not shown) [Methyldeoxaphomin NPDG-F]
Dd2 [1]; 18, 30 or 42 HPI
  effect when added after 6 HPI: persisted only in a minor population of schizonts
Dd2 [1]; ~6 HPI, synchronous Dd2
  effect when added in early ring: complete life cycle inhibition
Dd2-Pol δ parent line
  EC50: 3.43 µM
Dd2 [2]
  in vitro killing rate phenotype: delayed inhibition phenotype and a cytocidal killing profile
